Article PMC3358308 (2012)

Assays:
[1] = test system: M3Q (DNA, G4) GAGGGAGGGAGGGAGAGGGA; assay: UV-Vis absorption titration, Job plot, fluorescence; settings: K+ 50 mM (KCl); 10 mM Tris-HCl pH 7.0, 1 mM EDTA, 25 °C; 5 µM compound; Scatchard two-site, constants not given
[2] = test system: Hum24 (DNA, G4) TTAGGGTTAGGGTTAGGGTTAGGG; assay: as above; settings: K+ 50 mM (KCl); 10 mM Tris-HCl pH 7.0, 1 mM EDTA, 25 °C; 5 µM compound; Scatchard two-site, constants not given
[3] = test system: Oxy28 (DNA, G4) GGGGTTTTGGGGTTTTGGGGTTTTGGGG; assay: as above; settings: K+ 50 mM (KCl); 10 mM Tris-HCl pH 7.0, 1 mM EDTA, 25 °C; 5 µM compound; Scatchard two-site, constants not given
[4] = test system: LD (DNA, duplex) GCGCAATTGCGC; assay: UV-Vis absorption, fluorescence; settings: K+ 50 mM (KCl); 10 mM Tris-HCl pH 7.0, 1 mM EDTA; 5 µM compound, 10 µM strand; weak new band at 682 nm
[5] = test system: KRAS (DNA, G4) AGGGCGGTGTGGGAAGAGGGAAGAGGGGGAGG; assay: UV-Vis absorption titration, Job plot, fluorescence; settings: K+ 50 mM (KCl); 10 mM Tris-HCl pH 7.0, 1 mM EDTA, 25 °C; 5 µM compound; Scatchard two-site, constants not given

- binding [1]: yes
- binding [2]: yes
- binding [3]: yes
- binding [4]: weak
- binding [5]: yes
SMILES: C[N+]1(CCOc2ccc(-c3c4nc(c(-c5ccc(OCC[N+]6(C)CCCCC6)cc5)c5ccc([nH]5)c(-c5ccc(OCC[N+]6(C)CCCCC6)cc5)c5nc(c(-c6ccc(OCC[N+]7(C)CCCCC7)cc6)c6ccc3[nH]6)C=C5)C=C4)cc2)CCCCC1
